Laboratory results from a compilation of properties of binary mixtures (doi:10.1021/acs.jpcb.6b06974).

Test: xn = mol fraction of the nth substance listed
Settings: 101 kPa

CCCCCC[n+]1ccn(C)c1.O=S(=O)([N-]S(=O)(=O)C(F)(F)F)C(F)(F)F + ClC(Cl)Cl
Settings	electrical conductivity [S/m]
288.5 K, x1 = 0.018	0.021
288.5 K, x1 = 0.137	0.302
288.5 K, x1 = 0.297	0.46
288.5 K, x1 = 0.604	0.255
288.5 K, x1 = 0.713	0.211
288.5 K, x1 = 0.848	0.169
288.5 K, x1 = 0.911	0.153
288.5 K, x2 = 0.014	0.137
298.2 K, x1 = 0.034	0.076
298.2 K, x1 = 0.167	0.477
298.2 K, x1 = 0.256	0.582
298.2 K, x1 = 0.379	0.524
298.2 K, x1 = 0.562	0.369
298.2 K, x1 = 0.732	0.295
298.2 K, x1 = 0.87	0.245
298.2 K, x1 = 0.924	0.233
298.2 K, x1 = 0.962	0.221
298.2 K, x2 = 0.008	0.213
308.2 K, x1 = 0.019	0.04
308.2 K, x1 = 0.123	0.501
308.2 K, x1 = 0.214	0.686
308.2 K, x1 = 0.318	0.701
308.2 K, x1 = 0.4	0.652
308.2 K, x1 = 0.585	0.431
308.2 K, x1 = 0.807	0.378
308.2 K, x1 = 0.905	0.327
308.2 K, x1 = 0.949	0.336
308.2 K, x2 = 0.015	0.326
318.5 K, x1 = 0.03	0.072
318.5 K, x1 = 0.2	0.785
318.5 K, x1 = 0.247	0.835
318.5 K, x1 = 0.446	0.788
318.5 K, x1 = 0.684	0.55
318.5 K, x1 = 0.815	0.529
318.5 K, x1 = 0.92	0.479
